In patent JP2013032353A, “ロキソプロフェン含有医薬組成物” (priority 2011, dated 2013):

Assays:
[1] = Interaction study: storage of loxoprofen sodium hydrate/drug mixtures and of the single drugs at 60 °C (Test Examples 1, 4, 7, 10, 13, 16, 18, 20, 21, 23, 25, 27); format: physicochemical; conditions: stored 1 week in glass bottle (3K), evaluated at start, 1 day, 3 days (2 days in Test Examples 10 and 16) and 1 week
[2] = tested on: gastric mucosal injury caused by loxoprofen [ロキソプロフェンに起因する胃粘膜障害]; experiment: Suppression of loxoprofen-induced gastrointestinal injury in rats (Test Examples 3, 6, 9, 12, 15, 24); format: in vivo, rat (Wistar); conditions: rat, 1 h before loxoprofen sodium hydrate 120 mg/kg p.o., result in words

Row | Compound | state in the glass bottle on storage [1] | also measured
1 | CC(C(=O)[O-])c1ccc(CC2CCCC2=O)cc1.O.O.[Na+] (centres unmarked) [ロキソプロフェンナトリウム水和物, Monosodium 2-[4-[(2-oxocyclopentyl)methyl]phenyl]propanoate dihydrate] | 変化は生じなかった | 
2 | CN(Cc1cc(Br)cc(Br)c1N)C1CCCCC1 [ブロムヘキシン塩酸塩] | 変化は生じなかった | 
3 | C[C@@H]([C@H](O)c1ccccc1)N(C)C.Cl [dl−メチルエフェドリン塩酸塩] | 変化は生じなかった | reduction of loxoprofen-induced gastric mucosal injury ([2]; oral, 20, 60, 180 mg/5 mL/kg): 軽減した
4 | CN1CCC[C@@H]1CCO[C@](C)(c1ccccc1)c1ccc(Cl)cc1 [クレマスチンフマル酸塩] | 変化は生じなかった | reduction of loxoprofen-induced gastric mucosal injury ([2]; oral, 1 mg/5 mL/kg): 軽減した
5 | Nc1c(Br)cc(Br)cc1CN[C@H]1CC[C@H](O)CC1 [アンブロキソール塩酸塩] | 変化は生じなかった | 
6 | リゾチーム塩酸塩: リゾチーム塩酸塩 (lysozyme hydrochloride) | 変化は生じなかった | 
7 | COc1ccc2c3c1O[C@H]1[C@@H](O)CC[C@H]4[C@@H](C2)N(C)CC[C@@]341 [ジヒドロコデインリン酸塩] |  | reduction of loxoprofen-induced gastric mucosal injury ([2]; oral, 8, 24, 72 mg/5 mL/kg, n=6): 軽減した
8 | CN1CCC(OC(c2ccccc2)c2ccccc2)CC1 [ジフェニルピラリン塩酸塩] | 変化は生じなかった | reduction of loxoprofen-induced gastric mucosal injury ([2]; oral, 3, 10 mg/5 mL/kg): 軽減した
9 | CN(C)CC[C@@H](c1ccc(Cl)cc1)c1ccccn1.O=C(O)/C=C\C(=O)O [クロルフェニラミンマレイン酸塩, d−クロルフェニラミンマレイン酸塩] | 変化は生じなかった | reduction of loxoprofen-induced gastric mucosal injury ([2]; oral, 5, 40 mg/5 mL/kg): 軽減した
10 | CN(C)CCOC(c1ccc(Cl)cc1)c1ccccn1 (centres unmarked) [カルビノキサミンマレイン酸塩] | 変化は生じなかった | reduction of loxoprofen-induced gastric mucosal injury ([2]; oral, 0.75, 75 mg/5 mL/kg): 軽減した
11 | COc1ccccc1OCC(O)CO (centres unmarked) [グアイフェネシン] | 変化は生じなかった | 
12 | COc1ccc2c(c1)[C@]13CCCC[C@@H]1[C@H](C2)N(C)CC3 [デキストロメトルファン臭化水素酸塩水和物] | 変化は生じなかった | 
